Reference: ChEMBL document CHEMBL3885861, “Open TG-GATES”

Organism: Rattus norvegicus
Assay: Open TG-GATES - Regimen: Daily Repeat
Assay type: toxicity, organism-based, Sprague-Dawley
Design: regimen Daily Repeat, gender Male, age 6 weeks
Details: in vivo, po, 0 mg/kg, route gavage, dose level Control; for APTT / Bas / Eos / Fbg / Hb / Ht / Lym / MCH / MCV / Mono / Neu / PT / Plat / RBC / Ret / WBC / MCHC: tissue Blood; for KIDNEY_L / KIDNEY_R / KIDNEY_TOTAL: tissue Kidney; for LIVER: tissue Liver; for ALP / ALT / AST / CRE / Ca / Cl / DBIL / GLC / IP / K / LDH / Na / PL / RALB / TBIL / TC / TG / TP / gamma-GTP / BUN: tissue Plasma

CCOc1ccc(NC(C)=O)cc1 [PHENACETIN]
TERMINAL_BW (72 h, time 3 day): 242.4 g
APTT (72 h, time 3 day): 16.7 s
Bas (72 h, time 3 day): 0%
Eos (72 h, time 3 day): 1%
Fbg (72 h, time 3 day): 299.2 mg/dL
Hb (72 h, time 3 day): 13.2 g/dL
Ht (72 h, time 3 day): 39.8%
Lym (72 h, time 3 day): 71.2%
MCH (72 h, time 3 day): 21.1 pg
MCV (72 h, time 3 day): 63.4 fL
Mono (72 h, time 3 day): 2.8%
Neu (72 h, time 3 day): 24.4%
PT (72 h, time 3 day): 13.2 s
Plat (72 h, time 3 day): 121.2 x10_4/uL
RBC (72 h, time 3 day): 628.2 x10_4/ul
Ret (72 h, time 3 day): 6.6%
WBC (72 h, time 3 day): 85.4 x10_2/uL
KIDNEY_L (72 h, time 3 day): 1 g
KIDNEY_R (72 h, time 3 day): 1 g
KIDNEY_TOTAL (72 h, time 3 day): 2 g
LIVER (72 h, time 3 day): 11.5 g
ALP (72 h, time 3 day): 2120 IU/L
ALT (72 h, time 3 day): 37.8 IU/L
AST (72 h, time 3 day): 67.2 IU/L
CRE (72 h, time 3 day): 0.2 mg/dL
Ca (72 h, time 3 day): 11.1 mg/dL
Cl (72 h, time 3 day): 105.6 meq/L
DBIL (72 h, time 3 day): 0.004 mg/dL
GLC (72 h, time 3 day): 176.6 mg/dL
IP (72 h, time 3 day): 7.2 mg/dL
K (72 h, time 3 day): 4.2 meq/L
LDH (72 h, time 3 day): 118.6 IU/L
Na (72 h, time 3 day): 143.8 meq/L
PL (72 h, time 3 day): 171 mg/dL
RALB (72 h, time 3 day): 2.6 g/dL
TBIL (72 h, time 3 day): 0.04 mg/dL
TC (72 h, time 3 day): 85.8 mg/dL
TG (72 h, time 3 day): 102.4 mg/dL
TP (72 h, time 3 day): 5.7 g/dL
gamma-GTP (72 h, time 3 day): 1 IU/L
TERMINAL_BW ([…], time 7 day): 272.4 g
TERMINAL_BW ([…], time 14 day): 332.8 g
TERMINAL_BW ([…], time 28 day): 424.6 g
APTT ([…], time 7 day): 17.7 s
Bas ([…], time 7 day): 0%
Eos ([…], time 7 day): 1.4%
Fbg ([…], time 7 day): 300.2 mg/dL
Hb ([…], time 7 day): 13.9 g/dL
Ht ([…], time 7 day): 41.1%
Lym ([…], time 7 day): 78.6%
MCH ([…], time 7 day): 21.2 pg
MCHC ([…], time 7 day): 33.8%
MCV ([…], time 7 day): 62.6 fL
Mono ([…], time 7 day): 2.6%
PT ([…], time 7 day): 13.5 s
Plat ([…], time 7 day): 118.8 x10_4/uL
RBC ([…], time 7 day): 656.2 x10_4/ul
Ret ([…], time 7 day): 5.4%
WBC ([…], time 7 day): 93.4 x10_2/uL
APTT ([…], time 14 day): 17.5 s
Bas ([…], time 14 day): 0%
Eos ([…], time 14 day): 1.4%
Fbg ([…], time 14 day): 320.2 mg/dL
Hb ([…], time 14 day): 14.3 g/dL
Ht ([…], time 14 day): 42.1%
Lym ([…], time 14 day): 75%
MCH ([…], time 14 day): 19.9 pg
MCHC ([…], time 14 day): 34%
MCV ([…], time 14 day): 58.6 fL
Mono ([…], time 14 day): 2.6%
Neu ([…], time 14 day): 20.6%
PT ([…], time 14 day): 13.3 s
Plat ([…], time 14 day): 117.7 x10_4/uL
RBC ([…], time 14 day): 720.4 x10_4/ul
Ret ([…], time 14 day): 4.1%
WBC ([…], time 14 day): 108.4 x10_2/uL
APTT ([…], time 28 day): 23 s
Bas ([…], time 28 day): 0%
Eos ([…], time 28 day): 1.4%
Fbg ([…], time 28 day): 276 mg/dL
Hb ([…], time 28 day): 15 g/dL
Ht ([…], time 28 day): 43.5%
Lym ([…], time 28 day): 73.2%
MCH ([…], time 28 day): 19.2 pg
MCV ([…], time 28 day): 55.6 fL
Mono ([…], time 28 day): 2.6%
Neu ([…], time 28 day): 22.2%
PT ([…], time 28 day): 14 s
Plat ([…], time 28 day): 114.1 x10_4/uL
RBC ([…], time 28 day): 782.6 x10_4/ul
Ret ([…], time 28 day): 2.6%
WBC ([…], time 28 day): 109.3 x10_2/uL
KIDNEY_L ([…], time 7 day): 1.1 g
KIDNEY_R ([…], time 7 day): 1.1 g
KIDNEY_TOTAL ([…], time 7 day): 2.3 g
KIDNEY_L ([…], time 14 day): 1.3 g
KIDNEY_R ([…], time 14 day): 1.3 g
KIDNEY_TOTAL ([…], time 14 day): 2.7 g
KIDNEY_L ([…], time 28 day): 1.4 g
KIDNEY_R ([…], time 28 day): 1.4 g
KIDNEY_TOTAL ([…], time 28 day): 2.7 g
LIVER ([…], time 7 day): 12.1 g
LIVER ([…], time 14 day): 13.9 g
LIVER ([…], time 28 day): 17 g
ALP ([…], time 7 day): 1453 IU/L
ALT ([…], time 7 day): 33.4 IU/L
AST ([…], time 7 day): 65.8 IU/L
BUN ([…], time 7 day): 15 mg/dL
CRE ([…], time 7 day): 0.2 mg/dL
Ca ([…], time 7 day): 10.9 mg/dL
Cl ([…], time 7 day): 105 meq/L
DBIL ([…], time 7 day): 0.004 mg/dL
IP ([…], time 7 day): 7.1 mg/dL
K ([…], time 7 day): 4.2 meq/L
LDH ([…], time 7 day): 95.8 IU/L
PL ([…], time 7 day): 167.6 mg/dL
RALB ([…], time 7 day): 2.7 g/dL
TBIL ([…], time 7 day): 0.044 mg/dL
TC ([…], time 7 day): 84.4 mg/dL
TG ([…], time 7 day): 127.8 mg/dL
TP ([…], time 7 day): 5.9 g/dL
gamma-GTP ([…], time 7 day): 1 IU/L
ALP ([…], time 14 day): 1542.8 IU/L
ALT ([…], time 14 day): 36.4 IU/L
AST ([…], time 14 day): 62.4 IU/L
BUN ([…], time 14 day): 14.6 mg/dL
CRE ([…], time 14 day): 0.2 mg/dL
Ca ([…], time 14 day): 10.8 mg/dL
Cl ([…], time 14 day): 104.6 meq/L
DBIL ([…], time 14 day): 0.024 mg/dL
GLC ([…], time 14 day): 181.4 mg/dL
IP ([…], time 14 day): 7.1 mg/dL
K ([…], time 14 day): 4.2 meq/L
LDH ([…], time 14 day): 158.6 IU/L
Na ([…], time 14 day): 143.6 meq/L
PL ([…], time 14 day): 152 mg/dL
RALB ([…], time 14 day): 2.7 g/dL
TBIL ([…], time 14 day): 0.062 mg/dL
TC ([…], time 14 day): 72.6 mg/dL
TG ([…], time 14 day): 129 mg/dL
TP ([…], time 14 day): 6 g/dL
gamma-GTP ([…], time 14 day): 1.2 IU/L
ALP ([…], time 28 day): 1212.8 IU/L
ALT ([…], time 28 day): 37 IU/L
AST ([…], time 28 day): 68.2 IU/L
BUN ([…], time 28 day): 17.2 mg/dL
CRE ([…], time 28 day): 0.3 mg/dL
Ca ([…], time 28 day): 10.7 mg/dL
Cl ([…], time 28 day): 104.8 meq/L
DBIL ([…], time 28 day): 0.02 mg/dL
GLC ([…], time 28 day): 185.2 mg/dL
IP ([…], time 28 day): 6 mg/dL
K ([…], time 28 day): 4 meq/L
LDH ([…], time 28 day): 76.6 IU/L
Na ([…], time 28 day): 144.8 meq/L
PL ([…], time 28 day): 149 mg/dL
RALB ([…], time 28 day): 2.9 g/dL
TBIL ([…], time 28 day): 0.048 mg/dL
